This note sets out measurements from US20180353501A1 (Arvinas, Inc., priority 2017, published 2018).

Test [1] deals with T1, p38α (Homo sapiens, UniProt Q16539).
T1 construct: selectively degrades p38α, whereas exemplary PROTAC 46 (10-atom linker, phenyl attachment) selectively degrades p38δ in MDA-MB-231 cells; endogenous in cells; host or cells: MDA-MB-231
Kind of test: Cellular assay of target protein degradation (MDA-MB-231 cells, ELISA). The test is classed as cell-based. Here is the method: (§1) Protocol of the cellular assay of target protein degradation (MDA-MB-231 cells, ELISA).
(§2) For detection Cell Signaling PathScan Sandwich ELISA Catalog#12850 was used. MDA-MB-231 cells and […] were cultured in ATCC DMEM+ATCC FBS and plated 40,000/well 100 μl/well in RPMI P/S with 5% CSS Omega (bovine) serum into a 96 well plate. The cells were grown for a minimum of 3 days, dosed with compounds in 0.1% DMSO (diluted with 5% CSS) and incubated with aspiration for 4 hours. 100 μl of 1× Cell Signaling lysis buffer #9803 (36 mL dH2O+4 mL Cell Signaling lysis buffer) was added. The incubation was placed on cold room shaker for 10 minutes at speed 8-9.5 μl to 100 μL of Diluent was transferred to ELISA plate (0.15 μg/mL-0.075 μg/mL) and stored at 4° C. overnight on cold room shaker speed 5 (gentle swirl) and then shaken next morning at 37° C. for 30 minutes. The preparation was washed 4×200 μl with ELISA wash buffer and aspirated with eight-channel aspirator. 100 μl/well of target protein detection antibody was added after, which the preparation was covered and shaken at 37° C. for 1 hour. 100 μl TMB was added, and the mixture was shaken for 5 min while under observation. When TMB turned light blue, 100 μl of Stop solution was added, and the mixture was shaken and read at 450 nm. Also read at 562 nm for background subtraction.
(In general: An ELISA detects its analyte on a solid surface through an enzyme-linked reagent.)

Test [2] has as its target T2, p38δ (Homo sapiens, UniProt O15264).
T2 construct: endogenous in cells; host or cells: MDA-MB-231 (intact cells for degradation; cleared cell lysate for CETSA)
T2 sequence (O15264 1-365): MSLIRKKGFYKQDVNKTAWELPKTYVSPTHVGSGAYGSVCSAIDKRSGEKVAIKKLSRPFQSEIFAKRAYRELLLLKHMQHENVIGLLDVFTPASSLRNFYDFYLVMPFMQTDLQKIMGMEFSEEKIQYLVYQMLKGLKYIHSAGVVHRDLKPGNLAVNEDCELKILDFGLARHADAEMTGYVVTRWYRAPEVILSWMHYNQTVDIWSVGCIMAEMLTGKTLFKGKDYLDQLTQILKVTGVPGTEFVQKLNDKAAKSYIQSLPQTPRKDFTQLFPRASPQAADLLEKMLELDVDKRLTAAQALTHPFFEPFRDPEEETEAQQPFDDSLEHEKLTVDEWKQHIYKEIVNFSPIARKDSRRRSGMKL
The test is described as above. It is filed as cell-based. The conditions noted are these: for DC50: read-out: p38δDC50/nM [MDA-MB-231]. Here is the method: as §1, §2

Test [3] concerns the target T1, p38α. Kind of test: Western blot survey of p38 isoform degradation in MDA-MB-231 cells (incl. proteasome rescue, CHX chase, washout). The conditions noted are these: MDA-MB-231 cells, western blot; for Dmax: read-out: p38α Dmax (maximum percentage of degradation achieved). The test is classed as cell-based. How it is done:
(§3) FIGS. 11A and 11B. Survey of p38 isoform degradation with foretinib-based VHL PROTACs (related to FIGS. 9A-9C and Table 13). (A) Western blots of amide series PROTACs tested in increasing concentrations (0.025, 0.100, 0.250, 1.0, 5.0 μM) on MDA-MB-231 cells, in duplicate. (B) Same as in (A) but with the phenyl series PROTACs. Summary table of the DC50 (concentration at which half-maximal degradation is achieved) and Dmax (maximum percentage of degradation achieved) is reported, per exemplary PROTAC, in Table 13.
(§4) FIGS. 13A, 13B, 13C, and 13D. Exemplary compounds 50 and 46 degrade p38 isoforms in a manner that is rapid, sustained, and proteasome-dependent. (A) MDA-MB-231 cells were either pre-treated or not with the proteasome inhibitor epoxomicin (1 μM) or the neddylation inhibitor MLN4924 (1 μM) for 30 minutes and subsequently treated with either vehicle (DMSO), exemplary compound 50 (250 nM), or exemplary compound 46 (250 nM) for 6 hours. (B) Quantitative real-time PCR was performed after 24 hours of treatment with either vehicle (DMSO), exemplary compound 50 (250 nM), or exemplary compound 46 (250 nM) in MDAMB-231 cells. The dotted line represents DMSO-treated conditions standardized to a value of 1.0 and mRNA abundance (per treatment group) is represented as a foldchange relative to that value. Data is based on biological duplicates and is normalized to beta-tubulin. (C) Cycloheximide (CHX) chase assay. MDA-MB-231 cells were pre-treated with 100 μg/mL CHX for 1 hour prior to treating for the indicated times with either vehicle (DMSO), exemplary compound 50 (250 nM), or exemplary compound 46 (250 nM). Tubulin-normalized p38α and p38δ abundance values are reported beneath individual lanes. (D) MDA-MB231 cells were treated with either vehicle (DMSO), exemplary compound 50 (250 nM), or exemplary compound 46 (250 nM) for 24 hours before re-plating onto new plastic in fresh medium for an additional 24, 48, or 72 hours (“washout” conditions).
(§5) Cell culture. MDA-MB-231 and HeLa cells were obtained from the American Type Culture Collection (ATCC), cultured in RPMI-1640 (1×) and DMEM (1×) medium, respectively, containing 10% fetal bovine serum (FBS) and 1% penicillin-streptomycin and grown in a humidified incubator at 37° C. and 5% CO2.
(§6) Lysates from MDA-MB-231 cells were washed once with ice cold PBS (1×), followed by lysis in buffer containing 25 mM Tris [pH 7.5], 0.25% sodium deoxycholate, 1% Triton X-100, supplemented with 1× protease inhibitor cocktail (Roche) and phosphatase inhibitors (10 mM NaF, 1 mM Na3VO4, and 20 mM β-glycerophosphate), unless otherwise noted. Lysates were spun at 14,000×g for 10 minutes at 4° C. and supernatant was evaluated for protein content using a Pierce BCA Protein Assay (Thermo Fisher Scientific). 25 to 50 μg of protein was loaded onto 10% SDS-PAGE gels or 4-20% Criterion TGX precast gradient gels (Bio-Rad), transferred to nitrocellulose membranes, and probed with the specified antibodies overnight at 4° C. in 1×TBS-Tween (Tris buffered saline plus 0.02% Tween 20) containing 5% non-fat milk. Immunoblots were visualized using a Bio-Rad ChemiDoc imaging instrument and subsequently processed and quantified using the accompanying Bio-Rad ImageLab software.
(§7) MDA-MB-231 cells were plated at 3×10^5 cells per well in a 6-well dish, allowed to adhere overnight, and switched to serum-free RPMI-1640 (1×) media for 16 hours. Cells were then pre-treated with cycloheximide (Sigma) at 100 μg mL^−1 for 1 hour prior to adding either vehicle (DMSO) or PROTAC (250 nM). At the indicated timepoints, cells were immediately placed on ice, rinsed with 1×PBS, lysed, and boiled.
(§8) MDA-MB-231 cells were plated at 1.5×10^5 cells per well in a 6-well dish and allowed to adhere overnight. On the following day, all cells were treated with either vehicle (DMSO) or PROTAC (250 nM). […]
(Immunoblotting shows a protein as a band on a membrane.)

Test [4] has as its target T2, p38δ. Described as above. It is filed as cell-based. The conditions noted are these: MDA-MB-231 cells, western blot. Here is the method:
as §3, §4, §5, §6, §7, §8

Another test has as its target T3, cMET (Homo sapiens, UniProt P08581).
T3 construct: endogenous in cells; host or cells: MDA-MB-231
Kind of test: Cellular assay of target protein degradation (MDA-MB-231 cells, ELISA). It is filed as cell-based. How it is done:
as §1, §2

Another test has as its target T4, MAK (Homo sapiens, UniProt P20794).
T4 construct: purchased DiscoverRx Corporation (KINOMEscan platform, service)
Kind of test: KINOMEscan in vitro kinase binding. The conditions noted are these: screened at 1000 nM; lower number = stronger binding. Here is the method:
In Vitro Kinase Binding Affinity Determination for Example 1 and Example 2.
PROTAC in vitro binding affinities (Kd) to c-Met was determined using the KINOMEscan™ platform (DiscoverRx Corporation). The compounds were solubilized in DMSO and sent to DiscoverRx Corporation as 10 μM stock solutions.
Example 1 and Example 2 were screened at a 1000 nM concentration, and the results of the binding interactions are reported in “% Ctrl”, where a lower number indicates stronger binding. % Ctrl=[(test compound signal−positive control signal)/(negative control signal−positive control signal)]×100, wherein the negative control was DMSO.

Where [5] appears, read: read-out: p38α DC50 (concentration at which half-maximal degradation is achieved).

T1 sequence (Q16539 whole entry): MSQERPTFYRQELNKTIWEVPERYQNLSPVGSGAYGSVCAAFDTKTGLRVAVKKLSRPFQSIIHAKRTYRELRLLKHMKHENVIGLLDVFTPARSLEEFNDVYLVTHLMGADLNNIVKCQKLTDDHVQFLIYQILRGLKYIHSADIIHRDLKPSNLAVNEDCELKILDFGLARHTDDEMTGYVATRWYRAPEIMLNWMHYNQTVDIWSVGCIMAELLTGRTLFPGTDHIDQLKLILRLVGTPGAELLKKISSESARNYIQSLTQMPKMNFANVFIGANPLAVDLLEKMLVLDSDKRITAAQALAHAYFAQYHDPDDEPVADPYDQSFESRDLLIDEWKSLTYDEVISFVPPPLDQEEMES
T3 sequence (P08581 25-1390): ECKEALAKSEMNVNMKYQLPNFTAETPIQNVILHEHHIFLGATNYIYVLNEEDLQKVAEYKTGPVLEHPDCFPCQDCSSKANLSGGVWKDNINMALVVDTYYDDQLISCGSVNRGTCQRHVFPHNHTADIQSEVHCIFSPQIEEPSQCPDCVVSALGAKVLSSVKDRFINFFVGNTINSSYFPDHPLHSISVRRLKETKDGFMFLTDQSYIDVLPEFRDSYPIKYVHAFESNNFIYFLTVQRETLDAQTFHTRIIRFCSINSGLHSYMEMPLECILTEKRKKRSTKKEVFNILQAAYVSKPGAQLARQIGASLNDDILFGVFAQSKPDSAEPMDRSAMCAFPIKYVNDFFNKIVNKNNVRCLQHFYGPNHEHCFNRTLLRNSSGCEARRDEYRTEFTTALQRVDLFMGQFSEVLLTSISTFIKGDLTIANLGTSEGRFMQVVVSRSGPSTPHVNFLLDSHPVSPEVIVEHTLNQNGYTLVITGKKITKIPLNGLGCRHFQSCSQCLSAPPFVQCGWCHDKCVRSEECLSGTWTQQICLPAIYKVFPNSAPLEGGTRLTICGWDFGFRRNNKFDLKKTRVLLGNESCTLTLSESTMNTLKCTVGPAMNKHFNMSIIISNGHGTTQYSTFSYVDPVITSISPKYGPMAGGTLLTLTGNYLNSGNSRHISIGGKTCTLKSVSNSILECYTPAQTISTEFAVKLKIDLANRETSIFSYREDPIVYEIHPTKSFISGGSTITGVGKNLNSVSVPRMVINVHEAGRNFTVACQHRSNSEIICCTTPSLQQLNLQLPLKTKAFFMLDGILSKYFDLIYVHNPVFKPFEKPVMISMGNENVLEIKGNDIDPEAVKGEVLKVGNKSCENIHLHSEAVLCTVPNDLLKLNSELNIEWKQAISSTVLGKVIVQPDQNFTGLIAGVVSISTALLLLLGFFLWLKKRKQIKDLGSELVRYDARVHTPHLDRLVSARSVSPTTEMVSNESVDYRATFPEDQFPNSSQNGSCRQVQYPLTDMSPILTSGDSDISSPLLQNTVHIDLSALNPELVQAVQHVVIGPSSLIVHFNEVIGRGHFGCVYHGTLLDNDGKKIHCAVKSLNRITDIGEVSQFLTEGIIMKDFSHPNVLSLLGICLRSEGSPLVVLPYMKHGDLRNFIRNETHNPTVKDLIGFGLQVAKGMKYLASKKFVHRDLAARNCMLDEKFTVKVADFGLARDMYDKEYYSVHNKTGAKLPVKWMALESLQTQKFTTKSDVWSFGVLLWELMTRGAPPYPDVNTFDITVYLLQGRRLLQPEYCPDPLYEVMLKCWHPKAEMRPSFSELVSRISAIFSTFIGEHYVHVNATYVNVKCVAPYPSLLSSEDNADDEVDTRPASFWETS
T4 sequence (P20794 whole entry): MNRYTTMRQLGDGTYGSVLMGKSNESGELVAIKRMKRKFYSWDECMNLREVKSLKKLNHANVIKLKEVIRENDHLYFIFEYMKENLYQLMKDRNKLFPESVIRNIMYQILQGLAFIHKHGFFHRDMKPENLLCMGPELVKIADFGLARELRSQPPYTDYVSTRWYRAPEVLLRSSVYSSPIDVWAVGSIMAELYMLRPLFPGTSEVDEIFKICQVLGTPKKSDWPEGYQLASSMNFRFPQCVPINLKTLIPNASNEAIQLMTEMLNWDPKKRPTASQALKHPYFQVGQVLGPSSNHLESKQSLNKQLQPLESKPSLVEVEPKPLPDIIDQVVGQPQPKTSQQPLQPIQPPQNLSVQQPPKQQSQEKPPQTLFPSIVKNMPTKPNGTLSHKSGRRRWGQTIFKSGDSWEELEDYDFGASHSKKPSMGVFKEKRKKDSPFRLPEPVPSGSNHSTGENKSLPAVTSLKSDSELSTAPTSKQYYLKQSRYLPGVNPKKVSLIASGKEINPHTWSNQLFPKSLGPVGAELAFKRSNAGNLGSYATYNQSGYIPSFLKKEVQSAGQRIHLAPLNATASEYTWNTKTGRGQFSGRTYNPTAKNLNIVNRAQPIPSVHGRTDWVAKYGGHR

Broadly, the Dmax is the greatest extent of degradation seen. Turning to `COc1cc2c(Oc3ccc(NC(=O)C4(C(=O)Nc5ccc(F)cc5)CC4)cc3F)ccnc2cc1OCCCCOCCCCOc1cc(-c2scnc2C)ccc1CNC(=O)[C@@H]1C[C@@H](O)CN1C(=O)[C@H](C(C)C)N1Cc2ccccc2C1=O` [Ex. 45], the DC50 at p38α [1], on p38δ [2], at p38α [3] (read-out: p38α DC50) and on p38δ [4] was above 5000 nM in each case. The maximal degradation (Dmax) is 27% at p38α [1], 43% on p38δ [2], 25% on p38α [3] and 44% on p38δ [4].

As for `COc1cc2c(Oc3ccc(NC(=O)C4(C(=O)Nc5ccc(F)cc5)CC4)cc3F)ccnc2cc1OCCCOCCCOCCCOc1cc(-c2scnc2C)ccc1CNC(=O)[C@@H]1C[C@@H](O)CN1C(=O)[C@H](C(C)C)N1Cc2ccccc2C1=O` [Ex. 47, N-(3-fluoro-4-((7-(3-(3-(3-(2-(((2S,4R)-4-hydroxy-1-((S)-3-methyl-2-(1-oxoisoindolin-2-yl)butano-yl)pyrrolidine-2-carboxamido)methyl)-5-(4-methylthiazol-5-yl)phenoxy)propoxy)-propoxy)propoxy)-6-methoxyquinolin-4-yl)oxy)phenyl)-N-(4-fluorophenyl)cyclopropane-1,1-dicarboxamide], the DC50 at p38α [1], on p38δ [2], at p38α [3] (read-out: p38α DC50) and on p38δ [4] was above 5000 nM in each case. In addition, the Dmax worked out at 12% at p38α [1], 23% at p38δ [2], 20% at p38α [3] and 33% on p38δ [4].

As for `COc1cc2c(Oc3ccc(NC(=O)C4(C(=O)Nc5ccc(F)cc5)CC4)cc3F)ccnc2cc1OCCCOCCOCCCOc1cc(-c2scnc2C)ccc1CNC(=O)[C@@H]1C[C@@H](O)CN1C(=O)[C@H](C(C)C)N1Cc2ccccc2C1=O` [Ex. 5], the DC50 at p38α [3] (read-out: p38α DC50) is at least 5000 nM; on p38δ [4], 4900 nM. For the same molecule, the Dmax worked out at 17% at p38α [3] and 52% at p38δ [4].

As for `COc1cc2c(Oc3ccc(NC(=O)C4(C(=O)Nc5ccc(F)cc5)CC4)cc3F)ccnc2cc1OCCCOCCOCCC(=O)N[C@H](C(=O)N1C[C@H](O)C[C@H]1C(=O)NCc1ccc(-c2scnc2C)cc1)C(C)(C)C` [Ex. 48, N-(3-fluoro-4-((7-(3-(2-(3-(((S)-1-((2S,4R)-4-hydroxy-2-((4-(4-methylthiazol-5-yl)benzyl)carbamoyl)pyrrolidin-1-yl)-3,3-dimethyl-1-oxobutan-2-yl)amino)-3-oxopropoxy)ethoxy)-propoxy)-6-methoxyquinolin-4-yl)oxy)phenyl)-N-(4-fluorophenyl)cyclopropane-1,1-dicarboxa-mide], the Dmax at cMET is 44%; at p38α [1], 99%; at p38δ [2], 91%; on p38α [3], 99.4%; at p38δ [4] it was 91%. Moreover, the DC50 on p38α [1] amounted to 18.8 nM; on p38δ [2], 91.7 nM; at p38α [3] (setting [5]), 18.8 nM; at p38δ [4], 91.7 nM.

As for `COc1cc2c(Oc3ccc(NC(=O)C4(C(=O)Nc5ccc(F)cc5)CC4)cc3F)ccnc2cc1OCCOCCOCCC(=O)N[C@H](C(=O)N1C[C@H](O)C[C@H]1C(=O)NCc1ccc(-c2scnc2C)cc1)C(C)(C)C` [Ex. 49, N-(3-fluoro-4-((7-(2-(2-(3-(((S)-1-((2S,4R)-4-hydroxy-2-((4-(4-methylthiazol-5-yl)benzyl)carba-moyl)pyrrolidin-1-yl)-3,3-dimethyl-1-oxobutan-2-yl)amino)-3-oxopropoxy)ethoxy)ethoxy)-6-methoxyquinolin-4-yl)oxy)phenyl)-N-(4-fluorophenyl)cyclopropane-1,1-dicarboxamide], the Dmax on cMET was determined as 49%; at p38α [1], 91%; at p38δ [2], 81%; on p38α [3] it was 91%; at p38δ [4], 81%. Besides, the DC50 on p38α [1] was determined as 40.1 nM; on p38δ [2], 51.4 nM; at p38α [3] (setting [5]) it was 40.1 nM; on p38δ [4], 51.4 nM.

For `COc1cc2c(Oc3ccc(NC(=O)C4(C(=O)Nc5ccc(F)cc5)CC4)cc3F)ccnc2cc1OCCCN1CCOCC1` [Foretinib, foretinib, reference compound], on MAK, the “% Ctrl” value is 55 % Ctrl.
